Reference: publication PMC11995216, “End-to-End Backbone Cyclization Enhances Passive Permeability of bRo5 Oligomeric Depsipeptides with Nonlinear Size Dependence” (ACS Medicinal Chemistry Letters, 2025)
Several values for one entry are separate records, joined by “and”; a condition that tells them apart may be missing. Equal values may be shown once. Read-outs that look alike come from different tables or passages of the source. Starred links: 1 amine or outer side, 2 acyl side, 3 side chain; linkers in the order of their positions; H or OH if unused. Non-standard residues stand in square brackets, D forms with d. Residues, ends and D or L forms follow the SMILES beside them. *: point of attachment. X1 = CCCCC[C@H](O[*:1])C(=O)[*:2]; Ahp(2) = CCCCC[C@H](N)C(=O)O; dNMeA = CN[C@H](C)C(=O)O; Boc = CC(C)(C)OC(=O)*; OBn = c1ccc(CO*)cc1

Columns and labels:
[1] = PAMPA
[2] = calculated using Supplement Equation 1, UV detection
[3] = tested on: PAMPA; conditions: UV detection
[4] = PAMPA; remark: listed apart in the source
[5] = initial concentration 500 uM, UV detection
[6] = UV detection
[7] = tested on: PAMPA; conditions: UV detection, initial concentration 500 uM

CCCCC[C@H](NC(=O)[C@@H](C)N(C)C(=O)[C@H](CCCCC)OC(=O)[C@@H](C)N(C)C(=O)[C@H](CCCCC)NC(=O)[C@@H](C)N(C)C(=O)[C@H](CCCCC)OC(=O)[C@@H](C)N(C)C(=O)OC(C)(C)C)C(=O)OCc1ccccc1 [Compound L2.3] (Boc-[dNMeA][X1][dNMeA][Ahp(2)][dNMeA][X1][dNMeA][Ahp(2)]-OBn)
LogPapp [1]: -5.48 ± 0.04 | Δ % diffusion [1]: ↑10% | %T ([2]; Well 1 / %T, Well 1): 0.55% and 0.49% | %T ([2]; Well 2 / %T, Well 2): 0.56% and 0.52% | %T ([2]; Well 3 / %T, Well 3): 0.52% and 0.55% | %T ([2]; Well 4 / %T, Well 4): 0.5% and 0.53% | %T ([2]; Well 5 / %T, Well 5): 0.54% and 0.53% | Papp ([3]; Papp (x 10^-6 cm/s) / [row 1]): 3.76 ×10⁻⁶ cm/s | Papp ([3]; Papp (x 10^-6 cm/s) / [row 2]): 3.12 ×10⁻⁶ cm/s | Papp ([3]; Papp (x 10^-6 cm/s) / [row 3]): 3.36 ×10⁻⁶ cm/s | Papp ([3]; Papp (x 10^-6 cm/s) / [row 4]): 3.52 ×10⁻⁶ cm/s | Papp ([3]; Papp (x 10^-6 cm/s) / [row 5]): 3.88 ×10⁻⁶ cm/s | Papp ([3]; Papp (x 10^-6 cm/s) / [row 6]): 3.19 ×10⁻⁶ cm/s | Papp ([3]; Papp (x 10^-6 cm/s) / [row 7]): 3.05 ×10⁻⁶ cm/s | Papp ([3]; Papp (x 10^-6 cm/s) / [row 8]): 2.93 ×10⁻⁶ cm/s | Papp ([3]; Papp (x 10^-6 cm/s) / [row 9]): 3.14 ×10⁻⁶ cm/s | Papp ([3]; Papp (x 10^-6 cm/s) / [row 10]): 3.2 ×10⁻⁶ cm/s | Papp [4]: 3.32 ± 0.31 ×10⁻⁶ cm/s | donor concentration after incubation ([5]; Well 1 / [donor], Well 1): 388 µM and 369 µM | donor concentration after incubation ([5]; Well 2 / [donor], Well 2): 382 µM and 380 µM | donor concentration after incubation ([5]; Well 3 / [donor], Well 3): 369 µM and 377 µM | donor concentration after incubation ([5]; Well 4 / [donor], Well 4): 380 µM and 370 µM | donor concentration after incubation ([5]; Well 5 / [donor], Well 5): 353 µM and 358 µM | % recovery ([6]; Well 1 / %R, Well 1): 96% and 88% | % recovery ([6]; Well 2 / %R, Well 2): 91% and 90% | % recovery ([6]; Well 4 / %R, Well 4): 92% and 88% | % recovery ([6]; Well 5 / %R, Well 5): 87% and 85% | Acceptor Concentration ([7]; Acceptor Concentration (uM) / [row 1]): 89.6 µM | Acceptor Concentration ([7]; Acceptor Concentration (uM) / [row 2]): 71.9 µM | Acceptor Concentration ([7]; Acceptor Concentration (uM) / [row 3]): 75.1 µM | Acceptor Concentration ([7]; Acceptor Concentration (uM) / [row 4]): 81.3 µM | Acceptor Concentration ([7]; Acceptor Concentration (uM) / [row 5]): 83.9 µM | Acceptor Concentration ([7]; Acceptor Concentration (uM) / [row 6]): 71.2 µM | Acceptor Concentration ([7]; Acceptor Concentration (uM) / [row 7]): 69.7 µM | Acceptor Concentration ([7]; Acceptor Concentration (uM) / [row 8]): 66.2 µM | Acceptor Concentration ([7]; Acceptor Concentration (uM) / [row 9]): 69.9 µM | Acceptor Concentration ([7]; Acceptor Concentration (uM) / [row 10]): 69 µM
